# Results taken from patent publication US10793575B2, “Oxoisoquinoline derivatives” (CARNA BIOSCIENCES, INC., priority 2016, dated 2020).
# Target: dephosphorylated BTK (Homo sapiens (Human), UniProt Q06187)
# Assay: BTK Activity Inhibition Test (mobility shift assay)
# Assay type: biochemical
# Settings: 200 μM ATP, read-out: Inhibitory Activity on BTK
# Description: Dephosphorylated BTK was obtained by adding λ protein phosphatase (manufactured by New England BioLabs Inc., Code No. P0753S) and MnCl2 at 10 U/μg and 2 mM, respectively, to biotinylated BTK protein BTN-BTK (Manufactured by Carna Biosciences, Inc.) enzyme solution, reacting the mixture at 4° C. overnight, and removing of λ protein phosphatase by anti […]-tag antibody agarose gel chromatography, followed by buffer exchange using a 10DG Desalting Column.
# The kinase activity was measured using QuickScout Screening Assist (trade mark) MSA (commercially available kit manufactured by Carna Biosciences, Inc.) by mobility shift assay (MSA) method. The substrate of the kinase reaction was an FITC-labeled SRCtide peptide included in the kit. An assay buffer [20 mM HEPES, 0.01% Triton X-100 (Trade mark), 2 mM dithiothreitol, pH 7.5] was used and adjusted at 4 μM substrate, 20 mM MgCl2 and 200 μm ATP to obtain a substrate mixture solution. The enzyme solution was also prepared by diluting the dephosphorylated BTK to 0.46 nM using the assay buffer. The 10 mM solution of the test compound in DMSO was further diluted with DMSO to 10 levels of the concentration (0.00003 mM, 0.0001 mM, 0.0003 mM, 0.001 mM, 0.003 mM, 0.01 mM, 0.03 mM, 0.1 mM, 0.3 mM, 1 mM), each of which was subjected to a 25-fold dilution with the assay buffer to obtain the drug solutions (4% DMSO solutions). 5 μL of the drug solution or a control solution (4% DMSO-assay buffer), 5 μL of the substrate mixture solution, and 10 μL of the enzyme solution were mixed in the wells of a polypropylene 384-well plate and allowed to react at room temperature for 2 hours, and then quenched by adding 60 μL of the termination buffer included in the kit. Subsequently, the quantities of the substrates (S) and the phosphorylated substrate (P) in the reaction solution were measured using LabChip EZ Reader II system (manufactured by Caliper Life Sciences) according to the protocol of the assay kit.
# The heights of the peaks of the isolated substrate and the phosphorylated substrate were represented as S and P, respectively, and a blank which contained the assay buffer instead of the enzyme solution was also measured.
# The inhibition rate (%) of the test compound was calculated according to the following equation; Inhibition rate (%)=(1−(C−A)/(B−A))×100 • wherein, A, B and C represent P/(P+S) of the blank well, P/(P+S) of the control well and P/(P+S) of the compound-containing well, respectively.
# The IC50 value was calculated via a regression analysis of the inhibition rate (%) and the test compound concentration (logarithmic value).
# Chain of dephosphorylated BTK (Q06187 whole entry): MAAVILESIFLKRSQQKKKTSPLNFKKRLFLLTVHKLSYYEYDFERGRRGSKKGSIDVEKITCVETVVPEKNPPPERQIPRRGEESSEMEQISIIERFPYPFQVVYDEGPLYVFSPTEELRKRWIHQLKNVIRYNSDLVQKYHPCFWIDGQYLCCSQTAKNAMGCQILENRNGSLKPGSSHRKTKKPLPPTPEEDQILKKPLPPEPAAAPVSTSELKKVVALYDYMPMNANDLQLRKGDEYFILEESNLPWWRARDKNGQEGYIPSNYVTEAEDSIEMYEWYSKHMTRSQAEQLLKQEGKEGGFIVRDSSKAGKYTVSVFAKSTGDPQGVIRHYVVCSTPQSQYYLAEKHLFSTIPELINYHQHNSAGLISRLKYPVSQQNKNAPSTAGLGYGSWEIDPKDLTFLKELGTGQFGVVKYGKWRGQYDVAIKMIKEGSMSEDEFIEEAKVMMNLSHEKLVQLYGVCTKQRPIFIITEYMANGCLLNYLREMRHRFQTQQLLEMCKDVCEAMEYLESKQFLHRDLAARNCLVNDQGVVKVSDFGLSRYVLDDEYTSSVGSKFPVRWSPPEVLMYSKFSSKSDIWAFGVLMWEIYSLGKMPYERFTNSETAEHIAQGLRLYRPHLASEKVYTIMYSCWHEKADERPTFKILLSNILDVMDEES
row,IC50,Structure (SMILES)
1,< 10 nM,"Nc1nc(-c2cccc(-n3ccc4cc(C5CC5)cc(F)c4c3=O)c2CO)c2nc(C3CC3)[nH]c2n1 [Example 12, 2-[3-(2-amino-8-cyclopropyl-9H-purin-6-yl)-2-(hydroxymethyl)phenyl]-6-cyclopropyl-8-fluoroisoquinolin-1(2H)-one]"
2,< 10 nM,"COc1ccc(-c2n[nH]c3nc(N)nc(-c4cccc(-n5ccc6cc(C7CC7)cc(F)c6c5=O)c4CO)c23)cc1 [Example 20, 2-{3-[6-amino-3-(4-methoxyphenyl)-1H-pyrazolo[3,4-d]pyrimidin-4-yl]-2-(hydroxymethyl)phenyl}-6-cyclopropyl-8-fluoroisoquinolin-1(2H)-one]"
3,< 10 nM,"COc1ccccc1-c1n[nH]c2nc(N)nc(-c3cccc(-n4ccc5cc(C6CC6)cc(F)c5c4=O)c3CO)c12 [Example 21, 2-{3-[6-amino-3-(2-methoxyphenyl)-1H-pyrazolo[3,4-d]pyrimidin-4-yl]-2-(hydroxymethyl)phenyl}-6-cyclopropyl-8-fluoroisoquinolin-1(2H)-one]"
4,< 10 nM,"COc1cccc(-c2n[nH]c3nc(N)nc(-c4cccc(-n5ccc6cc(C7CC7)cc(F)c6c5=O)c4CO)c23)c1 [Example 22, 2-{3-[6-amino-3-(3-methoxyphenyl)-1H-pyrazolo[3,4-d]pyrimidin-4-yl]-2-(hydroxymethyl)phenyl}-6-cyclopropyl-8-fluoroisoquinolin-1(2H)-one]"
5,< 10 nM,"COc1ccccc1-c1nc2c(-c3cccc(-n4ccc5cc(C6CC6)cc(F)c5c4=O)c3CO)nc(N)nc2[nH]1 [Example 24, 2-{3-[2-amino-8-(2-methoxyphenyl)-9H-purin-6-yl]-2-(hydroxymethyl)phenyl}-6-cyclopropyl-8-fluoroisoquinolin-1(2H)-one]"
6,< 10 nM,"Nc1nc(-c2cccc(-n3ccc4cc(C5CC5)cc(F)c4c3=O)c2CO)c2c(-c3ccccc3)c[nH]c2n1 [Example 28, 2-[3-(2-amino-5-phenyl-7H-pyrrolo[2,3-d]pyrimidin-4-yl)-2-(hydroxymethyl)phenyl]-6-cyclopropyl-8-fluoroisoquinolin-1(2H)-one]"

# Further lines, the molecule ahead of its results:
row,Structure (SMILES),IC50
1,"Nc1nc(-c2cccc(-n3ccc4cc(C5CC5)cc(F)c4c3=O)c2CO)c2nc[nH]c2n1 [Example 4, 2-[3-(2-amino-9H-purin-6-yl)-2-(hydroxymethyl)phenyl]-6-cyclopropyl-8-fluoroisoquinolin-1(2H)-one]",< 10 nM
2,"Nc1nc(-c2cccc(-n3ccc4cc(C5CC5)cc(F)c4c3=O)c2CO)c2cc[nH]c2n1 [Example 6, 2-[3-(2-amino-7H-pyrrolo[2,3-d]pyrimidin-4-yl)-2-(hydroxymethyl)phenyl]-6-cyclopropyl-8-fluoroisoquinolin-1(2H)-one]",< 10 nM
3,"Cc1cc2c(-c3cccc(-n4ccc5cc(C6CC6)cc(F)c5c4=O)c3CO)nc(N)nc2[nH]1 [Example 7, 2-[3-(2-amino-6-methyl-7H-pyrrolo[2,3-d]pyrimidin-4-yl)-2-(hydroxymethyl)phenyl]-6-cyclopropyl-8-fluoroisoquinolin-1(2H)-one]",< 10 nM
4,"Nc1nc(-c2cccc(-n3ccc4cc(C5CC5)cc(F)c4c3=O)c2CO)c2cc(C3CC3)[nH]c2n1 [Example 9, 2-[3-(2-amino-6-cyclopropyl-7H-pyrrolo[2,3-d]pyrimidin-4-yl)-2-(hydroxymethyl)phenyl]-6-cyclopropyl-8-fluoroisoquinolin-1(2H)-one]",< 10 nM
5,"Cc1n[nH]c2nc(N)nc(-c3cccc(-n4ccc5cc(C6CC6)cc(F)c5c4=O)c3CO)c12 [Example 10, 2-[3-(6-amino-3-methyl-1H-pyrazolo[3,4-d]pyrimidin-4-yl)-2-(hydroxymethyl)phenyl]-6-cyclopropyl-8-fluoroisoquinolin-1(2H)-one]",< 10 nM
6,"Nc1nc(-c2cccc(-n3ccc4cc(C5CC5)cc(F)c4c3=O)c2CO)c2cc(CO)[nH]c2n1 [Example 11, 2-{3-[2-amino-6-(hydroxymethyl)-7H-pyrrolo[2,3-d]pyrimidin-4-yl]-2-(hydroxymethyl)phenyl}-6-cyclopropyl-8-fluoroisoquinolin-1(2H)-one]",10 to 100 nM
7,"Nc1nc(-c2cccc(-n3ccc4cc(C5CC5)cc(F)c4c3=O)c2CO)c2cc(-c3ccncc3)[nH]c2n1 [Example 19, 2-{3-[2-amino-6-(pyridin-4-yl)-7H-pyrrolo[2,3-d]pyrimidin-4-yl]-2-(hydroxymethyl)phenyl}-6-cyclopropyl-8-fluoroisoquinolin-1(2H)-one]",< 10 nM

# Tested on: OCI-Ly10 cells
# Assay: Proliferation-Inhibitory Test Against Diffuse Large-Cell B-Cell Lymphoma OCI-Ly10 Strain
# Assay type: cell-based
# Settings: Homo sapiens, 96 hours, alamarBlue
# Description: OCI-Ly10 cells were cultured in IMDM medium (Iscove's Modified Dulbecco's Medium, Manufactured by Thermo Fisher Scientific Inc., hereinafter “medium”) containing 20% Fetal bovine serum and 1% penicillin-streptomycin (Nacalai Tesque, Inc.) in a 5% CO2 incubator. OCI-Ly10 cells were seeded to 96-well plate (20000 cells/well), compounds diluted with medium were added with final concentrations of 0.9 nM to 30000 nM (Final DMSO concentration, 0.3%), incubated for 96 hours and alamorBlue reagent (Thermo Fisher Scientific Inc.) was added.
row,IC50,Structure (SMILES)
1,30 nM,"Nc1nc(-c2cccc(-n3ccc4cc(C5CC5)cc(F)c4c3=O)c2CO)c2cc(-c3ccc(CN4CCN(CC(F)(F)F)CC4)cc3)[nH]c2n1 [Example 79, 2-{3-[2-amino-6-(4-{[4-(2,2,2-trifluoroethyl)piperazin-1-yl]methyl}phenyl)-7H-pyrrolo[2,3-d]pyrimidin-4-yl]-2-(hydroxymethyl)phenyl}-6-cyclopropyl-8-fluoroisoquinolin-1(2H)-one]"
2,70 nM,"CC1(C)CCCN(Cc2ccc(-c3cc4c(-c5cccc(-n6ccc7cc(C8CC8)cc(F)c7c6=O)c5CO)nc(N)nc4[nH]3)cc2)C1 [Example 80, 2-[3-(2-amino-6-{4-[(3,3-dimethylpiperidin-1-yl)methyl]phenyl}-7H-pyrrolo[2,3-d]pyrimidin-4-yl)-2-(hydroxymethyl)phenyl]-6-cyclopropyl-8-fluoroisoquinolin-1(2H)-one]"
3,24 nM,"Nc1nc(-c2cccc(-n3ccc4cc(C5CC5)cc(F)c4c3=O)c2CO)c2cc(C3=CCSCC3)[nH]c2n1 [Example 82, 2-{3-[2-amino-6-(3,6-dihydro-2H-thiopyran-4-yl)-7H-pyrrolo[2,3-d]pyrimidin-4-yl]-2-(hydroxymethyl)phenyl}-6-cyclopropyl-8-fluoroisoquinolin-1(2H)-one]"
4,24 nM,"CN(C)CC(=O)N1CC=C(c2cc3c(-c4cccc(-n5ccc6cc(C7CC7)cc(F)c6c5=O)c4CO)nc(N)nc3[nH]2)CC1 [Example 85, 2-[3-(2-amino-6-{1-[2-(dimethylamino)acetyl]-1,2,3,6-tetrahydropyridin-4-yl}-7H-pyrrolo[2,3-d]pyrimidin-4-yl)-2-(hydroxymethyl)phenyl]-6-cyclopropyl-8-fluoroisoquinolin-1(2H)-one]"
5,13 nM,"Nc1nc(-c2cccc(-n3ccc4cc(C5CC5)cc(F)c4c3=O)c2CO)c2cc(C3=CCN(C(=O)CN4CCOCC4)CC3)[nH]c2n1 [Example 86, 2-(3-{2-amino-6-[1-(2-morpholinoacetyl)-1,2,3,6-tetrahydropyridin-4-yl]-7H-pyrrolo[2,3-d]pyrimidin-4-yl}-2-(hydroxymethyl)phenyl)-6-cyclopropyl-8-fluoroisoquinolin-1(2H)-one]"
6,13 nM,"CC(C)S(=O)(=O)N1CC=C(c2cc3c(-c4cccc(-n5ccc6cc(C7CC7)cc(F)c6c5=O)c4CO)nc(N)nc3[nH]2)CC1 [Example 90, 2-(3-{2-amino-6-[1-(isopropylsulfonyl)-1,2,3,6-tetrahydropyridin-4-yl]-7H-pyrrolo[2,3-d]pyrimidin-4-yl}-2-(hydroxymethyl)phenyl)-6-cyclopropyl-8-fluoroisoquinolin-1(2H)-one]"
7,61 nM,"Nc1nc(-c2cccc(-n3ccc4cc(C5CC5)cc(F)c4c3=O)c2CO)c2cc(C3=CCN(CC4CC4)CC3)[nH]c2n1 [Example 92, 2-(3-{2-amino-6-[1-(cyclopropylmethyl)-1,2,3,6-tetrahydropyridin-4-yl]-7H-pyrrolo[2,3-d]pyrimidin-4-yl}-2-(hydroxymethyl)phenyl)-6-cyclopropyl-8-fluoroisoquinolin-1(2H)-one]"
